Compound `Brc1nccn1Cc1ccc2c(c1)Nc1nccnc1S2` displayed a melting point of 256 to 258 °C.

For `c1ccc(Cc2nccn2Cc2ccc3c(c2)Nc2nccnc2S3)nc1`, the melting point is 216 to 219 °C. To `CCOC(=O)c1c(C)ncn1Cc1ccc2c(c1)Nc1nccnc1S2` belongs 194 to 196 °C; to `O=C(O)c1ccc(-c2cn(Cc3ccc4c(c3)Nc3nccnc3S4)cn2)cc1`, 264 to 266 °C.

Take `CC/C(=C\c1ncn(Cc2ccc3c(c2)Nc2nccnc2S3)c1C)C(=O)O`: the melting point was > 288 °C (dec.). On to `CCCCCCCCC/C(=C\c1ncn(Cc2ccc3c(c2)Nc2nccnc2S3)c1C)C(=O)O`, for which the melting point fell in the range of 194 to 197 °C. For `O=C(O)/C=C/c1nccn1Cc1ccc2c(c1)Nc1nccnc1S2`, the melting point lay within 243 to 244 °C.

Take `CS(=O)(=O)Nc1ccc(-c2cn(Cc3ccc4c(c3)Nc3nccnc3S4)cn2)cc1`: the melting point is 253 to 255 °C.

Compound `CC(=O)Nc1ccc(-c2cn(Cc3ccc4c(c3)Nc3nccnc3S4)cn2)cc1` returned a melting point of 261 to 263 °C. In turn, `Cc1oncc1C(=O)NCCc1cn(Cc2ccc3c(c2)Nc2nccnc2S3)cn1` gave a melting point of 165 to 167 °C.

Regarding `Cc1c(C(C)(C)O)ncn1Cc1ccc2c(c1)Nc1nccnc1S2`, the melting point lay within 264 to 266 °C. For `c1cnn(Cc2ccc3c(c2)Nc2nccnc2S3)c1`, the melting point is 211 to 212 °C.

Regarding `c1cnc2c(c1)ncn2Cc1ccc2c(c1)Nc1nccnc1S2`, the melting point fell in the range of 249 to 251 °C. Regarding `C/C(=C\C1C2(C)CCCC1(C)CN(Cc1ccc3c(c1)Nc1nccnc1S3)C2)C(=O)O` (centres unmarked), the melting point lay in the range of 249 to 251 °C. Consider `O=C(O)C(F)C1C2CCCC1CN(Cc1ccc3c(c1)Nc1nccnc1S3)C2` (centres unmarked), for which the melting point was 185 to 187 °C. `OC(c1ccc2c(c1)Nc1nccnc1S2)c1nccs1` (centres unmarked) had a melting point of 110 to 114 °C. `OC(c1ccc2c(c1)Nc1nccnc1S2)c1cc(Br)ccc1F` (centres unmarked) came in with a melting point of 202 to 203 °C.

Compound `OC(C#Cc1ccccc1)c1ccc2c(c1)Nc1nccnc1S2` (centres unmarked) displayed a melting point of 192 to 194 °C. Take `CCCCC#CC(O)c1ccc2c(c1)Nc1nccnc1S2` (centres unmarked): the melting point fell in the range of 116 to 118 °C. With `NS(=O)(=O)c1ccc(CNCc2ccc3c(c2)Nc2nccnc2S3)cc1` the figure was 210 to 212 °C; with `CN(CCCCCC(=O)O)Cc1ccc2c(c1)Nc1nccnc1S2`, 191 to 193 °C.

The compound `O=C(Nc1ccccc1)c1ccc2c(c1)Nc1nccnc1S2` displayed a melting point of 281 to 282 °C. `CN(C)CCCNC(=O)Cc1ccc2c(c1)Nc1nccnc1S2` came in with a melting point of 145 to 148 °C. `CCCCNC(=O)OCc1ccc2c(c1)Nc1nccnc1S2`: the melting point fell in the range of 169 to 171 °C.

`Cc1ncnc2c1ncn2Cc1ccc2c(c1)Nc1nccnc1S2`: the melting point lay in the range of 276 to 278 °C. Compound `Cc1nc2c(nc(C)n2Cc2ccc3c(c2)Nc2nccnc2S3)c(=O)[nH]1` displayed a melting point of 206 to 211 °C. With `C[C@@H]1CN(c2ncnc3c2ncn3Cc2ccc3c(c2)Nc2nccnc2S3)C[C@H](C)O1` the figure was 227 to 229 °C.

`CN1CCN(c2ncnc3c2ncn3Cc2ccc3c(c2)Nc2nccnc2S3)CC1`: the melting point was in the range of 197 to 202 °C. Take `N#CN=C(N)c1ncnc2c1ncn2Cc1ccc2c(c1)Nc1nccnc1S2`: the melting point is over 290 °C.

In the case of `N#Cc1ccc2c(c1)Nc1nccnc1S2`, the melting point lay within 263 to 264 °C. As to `NC(Cc1ccc2c(c1)Nc1nccnc1S2)=NO`, the melting point lay in the range of 252 to 254 °C. With `CCOC(=O)C(C)CCC1CCN(C(=N)Cc2ccc3c(c2)Nc2nccnc2S3)CC1.Cl` (centres unmarked) the figure was 219 to 220 °C.

Regarding `CN(C)S(=O)(=O)NC1CCN(C(=N)Cc2ccc3c(c2)Nc2nccnc2S3)CC1.Cl`, the melting point lay within 215 to 218 °C. With `CS(=O)(=O)/N=C/N1CCN(C(=N)Cc2ccc3c(c2)Nc2nccnc2S3)CC1.Cl` the figure was 215 to 218 °C; with `CN(C)C(Cc1ccc2c(c1)Nc1nccnc1S2)=NC#N`, 247 to 249 °C (dec.). As to `N#CN=C(Cc1ccc2c(c1)Nc1nccnc1S2)NCCCn1ccnc1`, the melting point fell in the range of 205 to 208 °C. For the compound `C(=N\c1ccccn1)/NCc1ccc2c(c1)Nc1nccnc1S2`, the melting point fell in the range of 137 to 142 °C. `CS(=O)(=O)/N=C(\N)NCc1ccc2c(c1)Nc1nccnc1S2` returned a melting point of 244 to 245 °C. `CC(=O)NC1CCN(Cc2ccc3c(c2)Nc2nccnc2S3)CC1` gave a melting point of 212 to 214 °C. In the case of `NC(=O)C1CCCCN1Cc1ccc2c(c1)Nc1nccnc1S2` (centres unmarked), the melting point was 209 to 211 °C. For the compound `COC(=O)CNS(=O)(=O)NC1CCN(Cc2ccc3c(c2)Nc2nccnc2S3)CC1`, the melting point was 194 to 196 °C. `CS(=O)(=O)/N=C/NC1CCN(Cc2ccc3c(c2)Nc2nccnc2S3)CC1` yielded a melting point of 119 to 122 °C.

For `CS(=O)(=O)NC1CCN(Cc2ccc3c(c2)Nc2nccnc2O3)CC1`, the melting point lay within 241 to 243 °C. Regarding `CNS(=O)(=O)NC1CCN(Cc2ccc3c(c2)Nc2ncccc2S3)CC1`, the melting point fell in the range of 216 to 218 °C. For `C1=NCCCN1Cc1ccc2c(c1)Nc1nccnc1S2.Cl`, the melting point is 238 °C (dec.). To `N#CN=CN1CCN(Cc2ccc3c(c2)Nc2nccnc2S3)CC1` belongs 238 to 241 °C (dec.); to `O=C1CCN(Cc2ccc3c(c2)Nc2nccnc2S3)CC1`, 186 to 188 °C. In turn, `c1ccc2c(c1)CCCN2Cc1ccc2c(c1)Nc1nccnc1S2` yielded a melting point of 208 to 210 °C.

`N=C(N)N1CCN(Cc2ccc3c(c2)Nc2nccnc2S3)CC1`: the melting point is 265 to 271 °C (dec.).

In turn, `O=C(O)CCCN1CCC(NCc2ccc3c(c2)Nc2nccnc2S3)CC1` gave a melting point of 121 to 124 °C.

`CC(CCC1CCN(Cc2ccc3c(c2)Nc2ncccc2S3)CC1)C(=O)O` (centres unmarked) returned a melting point of 113 to 115 °C. `CC(CCC1CCN(Cc2ccc3c(c2)Nc2nccnc2O3)CC1)C(=O)O` (centres unmarked) registered a melting point of 238 to 240 °C.

`CC(C)(CC(=O)O)C1CCN(Cc2ccc3c(c2)Nc2nccnc2S3)CC1` registered a melting point of 272 to 275 °C. For `O=C(O)C1CCN(S(=O)(=O)NC2CCN(Cc3ccc4c(c3)Nc3nccnc3S4)CC2)CC1`, the melting point fell in the range of 54 to 55 °C. To `O=C(O)CNS(=O)(=O)NC1CCN(Cc2ccc3c(c2)Nc2nccnc2S3)CC1` belongs 195 to 196 °C; to `CCOC1(CC(=O)O)CC2(CCN(Cc3ccc4c(c3)Nc3nccnc3S4)CC2)C1`, 226 to 227 °C. With `CC(C(=O)O)=C1CC2(CCN(Cc3ccc4c(c3)Nc3nccnc3S4)CC2)C1` the figure was 251 to 252 °C; with `O=C(O)C1CC2(CCN(Cc3ccc4c(c3)Nc3nccnc3S4)CC2)O1` (centres unmarked), 178 to 180 °C; with `O=C(O)COCC1CCN(Cc2ccc3c(c2)Nc2nccnc2S3)CC1`, 146 to 148 °C.

With `CC(CCC1CCN(Cc2ccc3c(c2)Sc2nccnc2N3)CC1)C(=O)O` (centres unmarked), the melting point lay in the range of 221 to 222 °C. Take `O=C(O)C1CCC2(CC1)CCN(Cc1ccc3c(c1)Nc1nccnc1S3)C2` (centres unmarked): the melting point was 146 °C (dec.).

`O=C(O)C(O)C1CCN(Cc2ccc3c(c2)Nc2nccnc2S3)CC1` (centres unmarked) showed a melting point of 98 to 99 °C.

Turning to `O=C(O)C1=CCCN(Cc2ccc3c(c2)Nc2nccnc2S3)C1`, the melting point lay in the range of 178 to 180 °C. `CC(CC(=O)O)C1CCN(Cc2ccc3c(c2)Nc2nccnc2S3)CC1` (centres unmarked) came in with a melting point of 218 to 220 °C.

Consider `O=C(O)C1(c2ccc(O)cc2)CCN(Cc2ccc3c(c2)Nc2nccnc2S3)CC1`, for which the melting point was in the range of 260 to 262 °C. As for `O=C(O)CC1CCN(Cc2ccc3c(c2)Nc2nccnc2S3)CC1`, the melting point was in the range of 142 to 146 °C. To `CC(C)(O)C(=O)CC(SCC(=O)O)C1CCN(Cc2ccc3c(c2)Nc2nccnc2S3)CC1` (centres unmarked) belongs 130 to 132 °C. As for `C=CCN1c2ccccc2Nc2nccnc21`, the melting point lay within 173 to 175 °C. Compound `CC(C)(C)OC(=O)CN1c2ccccc2Nc2nccnc21` came in with a melting point of 199 to 201 °C.

Compound `c1ccc(CN2c3ccccc3Nc3nccnc32)cc1` yielded a melting point of 194 to 196 °C. Consider `CCOC(=O)c1ccc2c(c1)Nc1nccnc1N2C`, for which the melting point fell in the range of 239 to 242 °C. As for `CN1c2ccc(I)cc2Nc2nccnc21`, the melting point was over 275 °C. With `O=C(O)CN1c2ccccc2Nc2nccnc21` the figure was 210 to 212 °C; with `CN1c2cc(O)ccc2Nc2nccnc21`, over 275 °C; with `CCCN1c2ccccc2Nc2nccnc21`, 190 to 192 °C. As to `CS(=O)(=O)NCCN1c2ccccc2Nc2nccnc21`, the melting point was 218 to 222 °C. With `CCOC(=O)CC(=O)c1ccc2c(c1)Nc1nccnc1N2C` the figure was 88 to 89 °C; with `c1ccc2ncc(NCc3ccc4c(c3)Nc3nccnc3S4)cc2c1`, 160 to 164 °C; with `c1cncc(CNCc2ccc3c(c2)Nc2nccnc2S3)c1`, 104 to 106 °C. With `c1ccc(CNc2ccc(NCc3ccc4c(c3)Nc3nccnc3S4)cn2)cc1` the figure was 208 to 211 °C; with `CC(C)Oc1ccc(NCc2ccc3c(c2)Nc2nccnc2S3)cn1`, 145 to 148 °C; with `O=C(O)COCCC1C2CCCC1CN(Cc1ccc3c(c1)Nc1nccnc1S3)C2` (centres unmarked), 108 to 113 °C. In turn, `OCCc1ccc(NCc2ccc3c(c2)Nc2nccnc2S3)cn1` registered a melting point of 138 to 142 °C. `OCCSc1ccc(NCc2ccc3c(c2)Nc2nccnc2S3)cn1` showed a melting point of 138 to 142 °C. In the case of `O=C(O)COc1ccc(NCc2ccc3c(c2)Nc2nccnc2S3)cn1`, the melting point is 170 °C. Consider `O=C(O)CSc1ccc(NCc2ccc3c(c2)Nc2nccnc2S3)cn1`, for which the melting point was 114 to 116 °C. In the case of `Brc1ccc(NCc2ccc3c(c2)Nc2nccnc2S3)nc1`, the melting point was in the range of 265 to 268 °C. The compound `CCNC(=O)N(Cc1ccc2c(c1)Nc1nccnc1S2)c1cccnc1` showed a melting point of 210 to 212 °C. As to `O=S(=O)(c1ccccc1)N(Cc1ccc2c(c1)Nc1nccnc1S2)c1cccnc1`, the melting point was in the range of 205 to 260 °C.

Usually melting point stands for the temperature, or range, at which the solid turns liquid.

These data come from patent US6518423B1, “Benzopiperidine derivatives” (Eisai Co., Ltd., priority 1996, dated 2003).
